In PMC9069370, “Integrated Design of a Membrane‐Lytic Peptide‐Based Intravenous Nanotherapeutic Suppresses Triple‐Negative Breast Cancer” (Advanced Science, 2022):
Square brackets hold non-standard residues; d marks the D form. Peptide text beside a SMILES is read from it.

Columns and labels:
[1] = ANTS/DPX liposome leakage assay; settings: for Peptide Concentration-induced 50 % ANTS/DPX leakage at pH 4.8 (L/P), 3POPC/1POPG Vesicle / Peptide Concentration-induced 50 % ANTS/DPX leakage at pH 4.8 (L/P), POPC Vesicle / Peptide Concentration-induced 50 % ANTS/DPX leakage at pH 7.4 (L/P), 3POPC/1POPG Vesicle / Peptide Concentration-induced 50 % ANTS/DPX leakage at pH 7.4 (L/P), POPC Vesicle: 0.5 mM vesicles, peptide 0-20 µM, 3 h incubation, lipid per peptide; for Peptide Concentration-induced 50 % ANTS/DPX leakage at pH 4.8 (L/P), 3POPC/1POPG Vesicle / Peptide Concentration-induced 50 % ANTS/DPX leakage at pH 4.8 (L/P), POPC Vesicle: HCl-adjusted PBS 1X pH 4.8; for Peptide Concentration-induced 50 % ANTS/DPX leakage at pH 7.4 (L/P), 3POPC/1POPG Vesicle / Peptide Concentration-induced 50 % ANTS/DPX leakage at pH 7.4 (L/P), POPC Vesicle: PBS 1X pH 7.4, high ratio = more potent; for change of ANTS/DPX dye leakage / liposome selectivity at pH 4.8: pH = 4.8 compared with physiological pH, anionic versus neutral liposomes
Experimental: Vesicle preparation: 5 mM ANTS and 12.5 mM DPX were entrapped in 0.1 µm diameter extruded vesicles (either POPC or POPC/POPG at a ratio of 3:1) with lipids. Gel filtration chromatography of Sephadex G‐100 was used to remove external free ANTS/DPX from LUVs with entrapped contents. LUVs were diluted to 0.5 mM and used to measure the leakage activity by the addition of aliquots of ACPs. Leakage was measured after 3 h incubation. 10% Triton was used as the positive control to measure the maximum leakage of the vesicle. Fluorescence emission spectra were recorded using excitation and emission wavelength of 350 and 510 nm for ANTS/DPX using a BioTek Synergy H1 Hybrid Multi‐Mode Reader.
Peptide Concentration-induced Peptide Concentration-induced
Name Sequence† 50 % ANTS/DPX leakage 50 % ANTS/DPX leakage at pH 7.4 (L/P) at pH 4.8 (L/P)
POPC Vesicle 3POPC/1POPG Vesicle POPC Vesicle 3POPC/1POPG Vesicle […]
Extended Data Table 4 | Peptide concentration-induced 50 % ANTS/DPX liposome leakage. 0.5 mM POPC and 3POPC/1POPG vesicles were fixed and incubated with titrated peptide concentration (0, 0.02, […]
hydrochloric acid-adjusted phoshate buffered saline (1X, pH 4.8). The values are shown as lipid per

[2] = Tryptophan fluorescent binding assay; settings: tryptophan fluorescence; 50 µM peptide, lipid titrated 0-5000 µM; phosphate buffered saline 1X, pH 7.4; values as lipid per peptide
Experimental: 50 µM ACP peptides and varied concentrations (concentrations: 0, 25, 50, 100, 150, 200, 250, 500, 1250, and 2500 µM) of POPC or POPC:POPG (3:1 ratio) large unilamellar vesicles were prepared in 10 mM phosphate buffer (pH 7.0). The solutions were measured after 1 h of incubation. Excitation was fixed at 280 nm (slit 9 nm) and emission was collected from 300 to 450 nm (slit 9 nm). The spectra were recorded using Cytation 5 Cell Imaging Multi‐Mode Reader from BioTek and were averaged by three scans.
Lipid Concentration-induced
Name Sequence† 50% Peptide Binding (L/P)
Extended Data Table 3 | Tryptophan binding assay. […]
peptide binding onto liposome. 50 µM peptides were fixed and incubated with titrated lipid (POPC vesicle […]
phosphate buffered saline (1X, pH 7.4). The lipid concentration that causes 50 % peptide binding was determined using tryptophan fluorescent binding assay and the values are shown as lipid per peptide.

HEK293T = assay: cells; format: cell-based, human; settings: 72 h
U2OS = format: cell-based, human; settings: 72 h
MCF‐10A = assay: cells; format: cell-based, human; settings: for selectivity for cancerous cells over non‐tumorigenic MCF‐10A: 2D culture, ratio of IC50; for IC50: 72 h
Description: (§1) […], and MCF-10A cells were maintained in MEGM with supplements and growth factors bovine pituitary extract, hydrocortisone, human epidermal growth factor, insulin, and gentamicin/amphotericin-B.

HMLER‐shEcad = assay: cells; format: cell-based, human; settings: 72 h
Description: as §1

HMLER = assay: cells; format: cell-based, human; settings: 72 h
Description: as §1

| SMILES | Peptide Concentration-induced 50 % ANTS/DPX leakage at pH 4.8 (L/P), 3POPC/1POPG Vesicle [1] | Peptide Concentration-induced 50 % ANTS/DPX leakage at pH 4.8 (L/P), POPC Vesicle [1] | Peptide Concentration-induced 50 % ANTS/DPX leakage at pH 7.4 (L/P), 3POPC/1POPG Vesicle [1] | Peptide Concentration-induced 50 % ANTS/DPX leakage at pH 7.4 (L/P), POPC Vesicle [1] | change of ANTS/DPX dye leakage / liposome selectivity at pH 4.8 [1] | Lipid Concentration-induced 50% Peptide Binding (L/P), 3POPC/1POPG Vesicle [2] | Lipid Concentration-induced 50% Peptide Binding (L/P), POPC Vesicle [2] | IC50 (HEK293T) | IC50 (U2OS) | selectivity for cancerous cells over non‐tumorigenic MCF‐10A (MCF‐10A) | IC50 (HMLER‐shEcad) | IC50 (MCF‐10A) | IC50 (HMLER) |
| --- | --- | --- | --- | --- | --- | --- | --- | --- | --- | --- | --- | --- | --- |
| CC(C)C[C@H](NC(=O)CN)C(=O)N[C@@H](CC(C)C)C(=O)N[C@@H](CCC(=O)O)C(=O)N[C@@H](CC(C)C)C(=O)N[C@@H](CC(C)C)C(=O)N[C@@H](Cc1c[nH]cn1)C(=O)N[C@@H](CC(C)C)C(=O)N[C@@H](CC(C)C)C(=O)N[C@@H](CC(C)C)C(=O)N[C@@H](CCC(=O)O)C(=O)N[C@@H](C)C(=O)N[C@@H](C)C(=O)NCC(=O)N[C@@H](Cc1c[nH]c2ccccc12)C(N)=O [EHE] (H-GLLELLHLLLEAAGW-NH2) | 384 L/P | 75 L/P | 706 L/P | 952 L/P | significantly increased dye leakage from anionic liposomes | 0.44 L/P | 0.44 L/P | 13 µM | 18.2 ± 1.06 µM | > 25 fold | 2.55 ± 0.07 µM | – | – |
| CC(C)C[C@H](NC(=O)CN)C(=O)N[C@@H](CC(C)C)C(=O)N[C@@H](CCCCN)C(=O)N[C@@H](CC(C)C)C(=O)N[C@@H](CC(C)C)C(=O)N[C@@H](CCCCN)C(=O)N[C@@H](CC(C)C)C(=O)N[C@@H](CC(C)C)C(=O)N[C@@H](CC(C)C)C(=O)N[C@@H](Cc1c[nH]cn1)C(=O)N[C@@H](C)C(=O)N[C@@H](C)C(=O)NCC(=O)N[C@@H](Cc1c[nH]c2ccccc12)C(N)=O [KKH] (H-GLLKLLKLLLHAAGW-NH2) | 49 L/P | 164 L/P | 227 L/P | 2119 L/P | – | 0.48 L/P | 0.83 L/P | 4 ± 0.28 µM | 13.3 ± 0.99 µM | – | 2.2 ± 0.42 µM | 1.75 ± 0.35 µM | 2.4 ± 0.85 µM |
| CC(C)C[C@@H](NC(=O)CN)C(=O)N[C@H](CC(C)C)C(=O)N[C@H](CC(=O)O)C(=O)N[C@H](CC(C)C)C(=O)N[C@H](CC(C)C)C(=O)N[C@H](CCC(=O)O)C(=O)N[C@H](CC(C)C)C(=O)N[C@H](CC(C)C)C(=O)N[C@H](CC(C)C)C(=O)N[C@H](CCCCN)C(=O)N[C@H](C)C(=O)N[C@H](C)C(=O)NCC(=O)N[C@H](Cc1c[nH]c2ccccc12)C(N)=O [d-DEK] (H-G[dL][dL][dD][dL][dL][dE][dL][dL][dL][dK][dA][dA]G[dW]-NH2) | – | – | – | – | – | – | – | 3.28 ± 0.21 µM | 5.84 ± 0.04 µM | – | 0.36 µM | 0.57 ± 0.01 µM | 0.44 ± 0.1 µM |
| CC(C)C[C@H](NC(=O)CN)C(=O)N[C@@H](CC(C)C)C(=O)N[C@@H](CCC(=O)O)C(=O)N[C@@H](CC(C)C)C(=O)N[C@@H](CC(C)C)C(=O)N[C@@H](CCC(=O)O)C(=O)N[C@@H](CC(C)C)C(=O)N[C@@H](CC(C)C)C(=O)N[C@@H](CC(C)C)C(=O)N[C@@H](Cc1c[nH]cn1)C(=O)N[C@@H](C)C(=O)N[C@@H](C)C(=O)NCC(=O)N[C@@H](Cc1c[nH]c2ccccc12)C(N)=O [EEH] (H-GLLELLELLLHAAGW-NH2) | 168 L/P | 58 L/P | 755 L/P | 738 L/P | significantly increased dye leakage from anionic liposomes | 0.50 L/P | 0.50 L/P | 12.9 ± 0.14 µM | 19.6 ± 3.96 µM | > 25 fold | 3.6 ± 0.85 µM | – | – |
| CC(C)C[C@H](NC(=O)CN)C(=O)N[C@@H](CC(C)C)C(=O)N[C@@H](CCC(=O)O)C(=O)N[C@@H](CC(C)C)C(=O)N[C@@H](CC(C)C)C(=O)N[C@@H](CCC(=O)O)C(=O)N[C@@H](CC(C)C)C(=O)N[C@@H](CC(C)C)C(=O)N[C@@H](CC(C)C)C(=O)N[C@@H](CCC(=O)O)C(=O)N[C@@H](C)C(=O)N[C@@H](C)C(=O)NCC(=O)N[C@@H](Cc1c[nH]c2ccccc12)C(N)=O [EEE] (H-GLLELLELLLEAAGW-NH2) | 28 L/P | 35 L/P | 346 L/P | 143 L/P | no increase in selectivity at low pH | 4.50 L/P | 1.33 L/P | 50 µM | 78.8 ± 5.3 µM | > 25 fold | 10.6 ± 3.46 µM | – | – |
| CC(C)C[C@H](NC(=O)CN)C(=O)N[C@@H](CC(C)C)C(=O)N[C@@H](CCCCN)C(=O)N[C@@H](CC(C)C)C(=O)N[C@@H](CC(C)C)C(=O)N[C@@H](CCC(=O)O)C(=O)N[C@@H](CC(C)C)C(=O)N[C@@H](CC(C)C)C(=O)N[C@@H](CC(C)C)C(=O)N[C@@H](CCC(=O)O)C(=O)N[C@@H](C)C(=O)N[C@@H](C)C(=O)NCC(=O)N[C@@H](Cc1c[nH]c2ccccc12)C(N)=O [KEE] (H-GLLKLLELLLEAAGW-NH2) | 108 L/P | 97 L/P | 657 L/P | 626 L/P | no increase in selectivity at low pH | 0.20 L/P | 0.20 L/P | 11.1 ± 1.84 µM | 49.4 ± 13.3 µM | > 25 fold | 2.05 ± 0.21 µM | – | – |
